This passage reports Drug uptake and IC50 results from ChEMBL document CHEMBL1909600, “Ganodone, a bioactive benzofuran from the fruiting bodies of Ganoderma tsugae” (J Nat Prod, 2011).

Broadly, the IC50 is the concentration that inhibits the measured activity by half. The low end stands for greater potency in that assay, the high end for weaker potency in that assay.

Series [1] in a line: Drug uptake in human HCT116 cell chromatin at 1 uM after 12 hrs by confocal fluorescence microscopy. The series is classed as ADME, cell-based. Particulars: hct-116, 12 h; call rule not given here.
Series [2] relates to HCT-116. Briefly: Cytotoxicity against human HCT116 cells after 24 hrs by MTT assay. It is filed as functional, cell-based. Conditions: HCT-116, 24 h. For orientation: Tetrazolium dyes change colour on reduction, which living cells bring about.
Series [3] in a line: Drug uptake in human HCT116 cell […] at 1 uM by using Lyso Tracker Red DND-99 staining. It is filed as ADME, cell-based. Particulars: hct-116, 1 µM.
A short description of series [4]: Drug uptake in human HCT116 cells cytosol at 1 uM after 12 hrs by confocal fluorescence microscopy. The series is classed as ADME, cell-based, HCT-116.
Series [5] is described as follows: Drug uptake in human HCT116 mitochondria at 1 uM by using Mito Tracker Red 580 staining. It is filed as ADME.
Series [6] can be described thus: Cytotoxicity against mouse Neuro2a cells after 24 hrs by MTT assay. Particulars: N2a. It is filed as functional, cell-based.
The nature of series [7]: Drug uptake in human HCT116 cell nuclear membrane at 1 uM after 12 hrs by confocal fluorescence microscopy. Particulars: hct-116, 12 h. The series is classed as ADME, cell membranes.
Series [8] can be described thus: Drug uptake in human HCT116 cell subcellular region at 1 uM incubated for 3 hrs measured after 30 hrs of drug washout by confocal fluorescence microscopy. It is filed as ADME, cell-based. Particulars: hct-116, 3 h.
Series [9] relates to HCT-116. The series can be described thus: Cellular uptake in human HCT116 cells at 1 uM after 1 hr by confocal fluorescence microscopy. It is filed as ADME, cell-based. Particulars: hct-116, 1 h.
Series [10] can be described thus: Drug uptake in human HCT116 cell lysosomes at 1 uM by using Lyso Tracker Red DND-99 staining. The series is classed as ADME, cell-based, Lysosome. Conditions: hct-116, 1 µM.
Series [11] concerns HeLa. The series can be described thus: Cytotoxicity against human HeLa cells after 24 hrs by MTT assay. It is filed as functional, cell-based.

SMILES strings stand for the structures.

`CC(=O)c1ccc(OC2Cc3c(ccc(C(C)=O)c3O)O2)cc1O` (stereo unspecified): the Drug uptake result is given as “Active” in series [1]; “Not Active” in series [3]; “Active” in series [4]; “Not Active” in series [5]; “Active” in series [7]; “Active” in series [8]. Also, the Drug uptake result is reported as “Active” in [9] and “Not Active” in [10]. Moreover, the results for the half-inhibitory concentration (IC50) in series [2], in series [6] and in series [11] were 220 nM, 81 nM and 490 nM, respectively.
